Assays:
Conditions in all cases: incubation time: 72 h
CAL-85-1 [1] = test: normalised viability (% of control), CellTiter-Blue; higher = more viable cells (about 100 = DMSO control)
How it was run: (§1)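 Vehicle (100) and a positive kill control (0) anchored the normalisation of each plate, and Z'-factor was used for quality control. Breast cancer cell lines in 20 µl suspension were incubated 72 h over compound in 5 µl medium in 384-well plates, followed by CellTiter-Blue at 560/590 nm. The value is normalised viability at a single listed concentration of the series.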

HDQ-P1 [2] = test: as above
How it was run: as §1

CAL-120 [3] = test: as above
How it was run: as §1

HCC1599 [4] = test: as above
How it was run: as §1

CAL-148 = test: as above
How it was run: as §1

MFM-223 [5] = test: as above
How it was run: as §1

MDA-MB-453 [6] = test: as above
How it was run: as §1

HCC1143 [7] = test: as above
How it was run: as §1

BT-474 [8] = test: as above
How it was run: as §1

MDA-MB-468 [9] = test: as above
How it was run: as §1

MDA-MB-231 [10] = test: as above
How it was run: as §1

MDA-MB-436 = test: as above
How it was run: as §1

SK-BR-3 [11] = test: as above
How it was run: as §1

CAL-85-1 [12] = test: drug sensitivity score (DSS), CellTiter-Blue viability (DSS (AUC-based score)); higher = stronger viability inhibition; extreme values may be limits of the assay
Experimental: (§2)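 DSRT with the CellTiter-Blue (resazurin reduction) viability readout, fluorescence 560/590 nm, 72 h incubation. Plates were normalised to DMSO and benzethonium chloride controls. DSS is computed from the area under the fitted dose-response curve (5 or 9 concentrations).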

BT-549 = test: as above
Experimental: as §2

HDQ-P1 [13] = test: as above
Experimental: as §2

Hs578T = test: as above
Experimental: as §2

CAL-120 [14] = test: as above
Experimental: as §2

HCC1599 [15] = test: as above
Experimental: as §2

MFM-223 [16] = test: as above
Experimental: as §2

MDA-MB-453 [17] = test: as above
Experimental: as §2

HCC1937 = test: as above
Experimental: as §2

HCC1143 [18] = test: as above
Experimental: as §2

BT-474 [19] = test: as above
Experimental: as §2

MDA-MB-468 [20] = test: as above
Experimental: as §2

MDA-MB-231 [21] = test: as above
Experimental: as §2

SK-BR-3 [22] = test: as above
Experimental: as §2

DU-4475 = test: as above
Experimental: as §2

Structure (SMILES) | normalised viability (CAL-85-1 [1]; 10 nM) | normalised viability (HDQ-P1 [2]; 10 nM) | normalised viability (CAL-120 [3]; 100 nM) | normalised viability (HCC1599 [4]; 100 nM) | normalised viability (CAL-148; 10 nM) | drug sensitivity score (CAL-85-1 [12]) | drug sensitivity score (BT-549) | drug sensitivity score (HDQ-P1 [13]) | drug sensitivity score (Hs578T) | drug sensitivity score (CAL-120 [14]) | drug sensitivity score (HCC1599 [15]) | drug sensitivity score (MFM-223 [16]) | drug sensitivity score (MDA-MB-453 [17]) | drug sensitivity score (HCC1937) | drug sensitivity score (HCC1143 [18]) | drug sensitivity score (BT-474 [19]) | drug sensitivity score (MDA-MB-468 [20]) | drug sensitivity score (MDA-MB-231 [21]) | drug sensitivity score (SK-BR-3 [22]) | drug sensitivity score (DU-4475) | further results
C[C@@H](C(=O)O)c1ccc(-c2ccccc2)c(F)c1 [Tarenflurbil] | 91.5% | 91.8% | 98.6% | 103% | 90.2% | 0 | 0 | 0 | 0 | 0 | 0 | 0 | 1.49 | 0 | 0 | 0 | 0 | 0 | 0 | 0 | normalised viability (MFM-223 [5]; 100 nM): 101%; normalised viability (MDA-MB-453 [6]; 10 nM): 99.5%; normalised viability (HCC1143 [7]; 100 nM): 98.8%; normalised viability (BT-474 [8]; 100 nM): 109%; normalised viability (MDA-MB-468 [9]; 100 nM): 104%; normalised viability (MDA-MB-231 [10]; 100 nM): 90.8%; normalised viability (MDA-MB-436; 100 nM): 122%; normalised viability (SK-BR-3 [11]; 100 nM): 84.8%
Cn1nnc2c(C(N)=O)ncn2c1=O [Temozolomide] | 102% | 92.3% | 95.9% | 115% | 90.4% | 0 | 2.1 | 1.58 | 0 | 0 | 0 | 0 | 0 | 0 | 0 | 0 | 0 | 0 | 0 | 0 | normalised viability (MFM-223 [5]; 100 nM): 105%; normalised viability (MDA-MB-453 [6]; 10 nM): 101%; normalised viability (HCC1143 [7]; 100 nM): 85.4%; normalised viability (BT-474 [8]; 100 nM): 98.2%; normalised viability (MDA-MB-468 [9]; 100 nM): 95.7%; normalised viability (MDA-MB-231 [10]; 100 nM): 104%; normalised viability (MDA-MB-436; 100 nM): 94.5%; normalised viability (SK-BR-3 [11]; 100 nM): 96.2%
CC[C@@H]1C(=O)N(C)c2cnc(Nc3ccc(C(=O)N[C@H]4CC[C@H](N5CCN(CC6CC6)CC5)CC4)cc3OC)nc2N1C(C)C [Volasertib] | – | – | – | – | – | 10.9 | 12.3 | 5.17 | 11.3 | 20.5 | 0 | 16.9 | 19.2 | 16.3 | 13.4 | 8.65 | 11.9 | 12.3 | 19.8 | 14.7 | normalised viability (CAL-85-1 [1]; 1 nM): 95.3%; normalised viability (HDQ-P1 [2]; 1 nM): 103%; normalised viability (CAL-120 [3]; 10 nM): 48.5%; normalised viability (HCC1599 [4]; 10 nM): 78.5%; normalised viability (CAL-148; 1 nM): 98.3%; normalised viability (MFM-223 [5]; 10 nM): 51.1%; normalised viability (MDA-MB-453 [6]; 1 nM): 104%; normalised viability (HCC1143 [7]; 10 nM): 77.4%; normalised viability (BT-474 [8]; 10 nM): 55.8%; normalised viability (MDA-MB-468 [9]; 10 nM): 83.8%; normalised viability (MDA-MB-231 [10]; 10 nM): 92.8%; normalised viability (MDA-MB-436; 10 nM): 88.6%; normalised viability (SK-BR-3 [11]; 10 nM): 53.6%
